Data reported in patent publication US20150313225A1.
Where two headings read alike, the source gives them in different places.

Experiments:
Format in all cases: cell-based
Phytophthora infestans = assay: microbe, parasite or virus in culture; details: for Observed efficacy: solo product
Pyricularia oryzae = assay: microbe, parasite or virus in culture; details: for Observed efficacy: solo product
Septoria tritici = assay: Microtest against leaf blotch on wheat caused by Septoria tritici (Septtr); details: solo product; for inhibition of growth at 4e-06 ppm: 0.000004 ppm; for inhibition of growth at 1.6e-05 ppm: 0.000016 ppm
Leptosphaeria nodorum = assay: Microtest against wheat leaf spots caused by Leptosphaeria nodorum (Leptno); details: solo product
Botrytis cinerea = assay: Microtiterplate test against the grey mold Botrytis cinerea (Botrci); details: solo product
Alternaria solani = assay: Microtest against early blight caused by Alternaria solani (Alteso); details: solo product; for inhibition of growth at 4e-06 ppm: 0.000004 ppm; for inhibition of growth at 6.3e-05 ppm: 0.000063 ppm
[1] = Phytophthora infestans, 168 h, read-out: Observed efficacy
[2] = Pyricularia oryzae, 168 h, read-out: Observed efficacy
[3] = Zymoseptoria tritici, 168 h, read-out: Observed efficacy
[4] = Zymoseptoria tritici, 168 h, […], read-out: Observed efficacy
[5] = Parastagonospora nodorum, 168 h, 0.00025 ppm, read-out: Observed efficacy
[6] = Parastagonospora nodorum, 168 h, read-out: Observed efficacy
[7] = Botrytis cinerea, 168 h, 0.063 ppm, read-out: Observed efficacy
[8] = Alternaria solani, 168 h, 0.00025 ppm, read-out: Observed efficacy
[9] = Alternaria solani, 168 h, read-out: Observed efficacy
[10] = Parastagonospora nodorum, 168 h, 1 ppm, read-out: Observed efficacy
[11] = Alternaria solani, 168 h, 0.25 ppm, read-out: Observed efficacy
[12] = Botrytis cinerea, 168 h, 0.25 ppm, read-out: Observed efficacy
[13] = Botrytis cinerea, 168 h, 4 ppm, read-out: Observed efficacy
[14] = Botrytis cinerea, 168 h, 1 ppm, read-out: Observed efficacy
[15] = Alternaria solani, 168 h, 0.063 ppm, read-out: Observed efficacy

CCC(Cn1cncn1)(OC)c1ccc(Oc2ccc(Cl)cc2)cc1Cl (centres unmarked) [I-21, 1-[2-[2-chloro-4-(4-chlorophenoxy)phenyl]-2-methoxy-butyl]-1,2,4-triazole]
inhibition of growth at 63 ppm (Phytophthora infestans; [1]): 29%
inhibition of growth at 0.016 ppm (Pyricularia oryzae; [2]): 1%
inhibition of growth at 4e-06 ppm (Septoria tritici; [3]): 17%
inhibition of growth at 6.3e-05 ppm (Septoria tritici; [4]): 25%
inhibition of growth at […] (Leptosphaeria nodorum; [5]): 12%
inhibition of growth at 0.001 ppm (Leptosphaeria nodorum; [6]): 22%
inhibition of growth at […] (Botrytis cinerea; [7]): 18%
inhibition of growth at […] (Alternaria solani; [8]): 2%
inhibition of growth at 0.004 ppm (Alternaria solani; [9]): 5%

CN1COCN(Cc2cnc(Cl)s2)/C1=N\[N+](=O)[O-] [II-42c, thiamethoxam, reference compound]
inhibition of growth at 1 ppm (Phytophthora infestans; [1]): 1%
inhibition of growth at 4 ppm (Phytophthora infestans; [1]): 2%
inhibition of growth at 0.016 ppm (Pyricularia oryzae; [2]): 3%
inhibition of growth at 1 ppm (Pyricularia oryzae; [2]): 56%
inhibition of growth at 1 ppm (Septoria tritici; Zymoseptoria tritici, 168 h, 1 ppm, read-out: Observed efficacy): 57%
inhibition of growth at 1 ppm (Leptosphaeria nodorum; [10]): 22%
inhibition of growth at 4 ppm (Leptosphaeria nodorum; Parastagonospora nodorum, 168 h, 4 ppm, read-out: Observed efficacy): 51%
inhibition of growth at 63 ppm (Botrytis cinerea; Botrytis cinerea, 168 h, 63 ppm, read-out: Observed efficacy): 8%
inhibition of growth at […] (Alternaria solani; [11]): 8%
inhibition of growth at 1 ppm (Alternaria solani; Alternaria solani, 168 h, 1 ppm, read-out: Observed efficacy): 10%
inhibition of growth at 4 ppm (Alternaria solani; Alternaria solani, 168 h, 4 ppm, read-out: Observed efficacy): 51%

CC(O)(Cn1cncn1)c1ccc(Oc2ccc(Cl)cc2)cc1Cl (centres unmarked) [I-17, 2-[2-chloro-4-(4-chlorophenoxy)phenyl]-1-(1,2,4-triazol-1-yl)propan-2-ol]
inhibition of growth at 16 ppm (Phytophthora infestans; [1]): 5%
inhibition of growth at 1 ppm (Pyricularia oryzae; [2]): 61%
inhibition of growth at 1e-06 ppm (Septoria tritici; Zymoseptoria tritici, 168 h, 0.000001 ppm, read-out: Observed efficacy): 14%
inhibition of growth at 4e-06 ppm (Septoria tritici; [3]): 12%
inhibition of growth at 1.6e-05 ppm (Septoria tritici; [3]): 19%
inhibition of growth at 2.5e-07 ppm (Septoria tritici; [4]): 10%
inhibition of growth at 6.3e-05 ppm (Botrytis cinerea; Botrytis cinerea, 168 h, 0.000063 ppm, read-out: Observed efficacy): 9%
inhibition of growth at […] (Botrytis cinerea; [7]): 0%
inhibition of growth at […] (Botrytis cinerea; [12]): 0%
inhibition of growth at 4e-06 ppm (Alternaria solani; [9]): 6%
inhibition of growth at 1.6e-05 ppm (Alternaria solani; Alternaria solani, 168 h, 0.000016 ppm, read-out: Observed efficacy): 0%
inhibition of growth at 6.3e-05 ppm (Alternaria solani; [9]): 0%

COC(=O)N(OC)c1ccccc1COc1ccn(-c2ccc(Cl)cc2)n1 [II-66, pyraclostrobin, reference compound]
inhibition of growth at 0.016 ppm (Phytophthora infestans; [1]): 9%
inhibition of growth at 0.004 ppm (Pyricularia oryzae; [2]): 59%
inhibition of growth at 0.001 ppm (Septoria tritici; [3]): 12%
inhibition of growth at 0.004 ppm (Septoria tritici; Zymoseptoria tritici, 168 h, 0.004 ppm, read-out: Observed efficacy): 37%
inhibition of growth at 6.3e-05 ppm (Septoria tritici; [4]): 7%
inhibition of growth at 4 ppm (Botrytis cinerea; [13]): 29%
inhibition of growth at 16 ppm (Botrytis cinerea; Botrytis cinerea, 168 h, 16 ppm, read-out: Observed efficacy): 66%
inhibition of growth at 0.004 ppm (Alternaria solani; [9]): 8%

C[N+]1(C)CCCCC1.[Cl-] [Mepiquat-cl]
Observed efficacy (Phytophthora infestans; 4 ppm): 5
Observed efficacy (Pyricularia oryzae; 1 ppm): 2
Observed efficacy (Pyricularia oryzae; 4 ppm): 1
Observed efficacy (Pyricularia oryzae; 16 ppm): 4
Observed efficacy (Septoria tritici; 63 ppm): 16
Observed efficacy (Leptosphaeria nodorum; 63 ppm): 28
Observed efficacy (Botrytis cinerea; 16 ppm): 11
Observed efficacy (Alternaria solani; 16 ppm): 10
Observed efficacy (Alternaria solani; 63 ppm): 16

C#CCC(O)(Cn1cncn1)c1ccc(Oc2ccc(Cl)cc2)cc1Cl (centres unmarked) [I-25, 2-[2-chloro-4-(4-chlorophenoxy)phenyl]-1-(1,2,4-triazol-1-yl)pent-4-yn-2-ol]
inhibition of growth at 16 ppm (Phytophthora infestans; [1]): 0%
inhibition of growth at 1.6e-05 ppm (Septoria tritici; [3]): 12%
inhibition of growth at 0.001 ppm (Septoria tritici; [3]): 37%
inhibition of growth at 6.3e-05 ppm (Septoria tritici; [4]): 12%
inhibition of growth at 4e-06 ppm (Leptosphaeria nodorum; Parastagonospora nodorum, 168 h, 0.000004 ppm, read-out: Observed efficacy): 14%
inhibition of growth at 1.6e-05 ppm (Leptosphaeria nodorum; Parastagonospora nodorum, 168 h, 0.000016 ppm, read-out: Observed efficacy): 22%
inhibition of growth at 0.004 ppm (Botrytis cinerea; Botrytis cinerea, 168 h, 0.004 ppm, read-out: Observed efficacy): 9%
inhibition of growth at 0.016 ppm (Botrytis cinerea; Botrytis cinerea, 168 h, 0.016 ppm, read-out: Observed efficacy): 16%
inhibition of growth at […] (Botrytis cinerea; [7]): 23%
inhibition of growth at […] (Botrytis cinerea; [12]): 49%
inhibition of growth at 4e-06 ppm (Alternaria solani; [9]): 7%
inhibition of growth at 6.3e-05 ppm (Alternaria solani; [9]): 1%

COCC(O)(Cn1cncn1)c1ccc(Oc2ccc(F)cc2)cc1Cl (centres unmarked) [I-27, 2-[2-chloro-4-(4-fluorophenoxy)phenyl]-1-methoxy-3-(1,2,4-triazol-1-yl)propan-2-ol]
inhibition of growth at 63 ppm (Phytophthora infestans; [1]): 31%
inhibition of growth at 1 ppm (Pyricularia oryzae; [2]): 29%
inhibition of growth at 1.6e-05 ppm (Septoria tritici; [3]): 7%
inhibition of growth at 0.001 ppm (Septoria tritici; [3]): 9%
inhibition of growth at 6.3e-05 ppm (Septoria tritici; [4]): 6%
inhibition of growth at […] (Leptosphaeria nodorum; [5]): 8%
inhibition of growth at 0.001 ppm (Leptosphaeria nodorum; [6]): 6%
inhibition of growth at 0.004 ppm (Leptosphaeria nodorum; Parastagonospora nodorum, 168 h, 0.004 ppm, read-out: Observed efficacy): 15%
inhibition of growth at 0.016 ppm (Leptosphaeria nodorum; Parastagonospora nodorum, 168 h, 0.016 ppm, read-out: Observed efficacy): 24%
inhibition of growth at […] (Botrytis cinerea; [7]): 22%
inhibition of growth at […] (Alternaria solani; [8]): 4%
inhibition of growth at 0.001 ppm (Alternaria solani; Alternaria solani, 168 h, 0.001 ppm, read-out: Observed efficacy): 0%
inhibition of growth at 0.004 ppm (Alternaria solani; [9]): 0%
inhibition of growth at 0.016 ppm (Alternaria solani; [9]): 12%

CC(O)(Cn1cncn1)c1ccc(Oc2ccc(F)cc2)cc1Cl (centres unmarked) [I-18, 2-[2-chloro-4-(4-fluorophenoxy)phenyl]-1-(1,2,4-triazol-1-yl)propan-2-ol]
inhibition of growth at 16 ppm (Phytophthora infestans; [1]): 15%
inhibition of growth at 63 ppm (Phytophthora infestans; [1]): 19%
inhibition of growth at 0.016 ppm (Pyricularia oryzae; [2]): 1%
inhibition of growth at 1 ppm (Pyricularia oryzae; [2]): 5%
inhibition of growth at 1.6e-05 ppm (Septoria tritici; [3]): 4%
inhibition of growth at 0.001 ppm (Septoria tritici; [3]): 4%
inhibition of growth at 6.3e-05 ppm (Septoria tritici; [4]): 0%
inhibition of growth at 6.3e-05 ppm (Leptosphaeria nodorum; Parastagonospora nodorum, 168 h, 0.000063 ppm, read-out: Observed efficacy): 22%
inhibition of growth at […] (Leptosphaeria nodorum; [5]): 26%
inhibition of growth at […] (Botrytis cinerea; [7]): 13%
inhibition of growth at […] (Botrytis cinerea; [12]): 44%
inhibition of growth at 0.004 ppm (Alternaria solani; [9]): 0%
inhibition of growth at 0.016 ppm (Alternaria solani; [9]): 7%

OC(Cc1ccccc1Cl)(Cn1nc[nH]c1=S)C1(Cl)CC1 (centres unmarked) [Prothioconazol]
Observed efficacy (Phytophthora infestans; 1 ppm): 4
Observed efficacy (Phytophthora infestans; 4 ppm): 12
Observed efficacy (Phytophthora infestans; 16 ppm): 35
Observed efficacy (Pyricularia oryzae; 1 ppm): 13
Observed efficacy (Pyricularia oryzae; 4 ppm): 23
Observed efficacy (Septoria tritici; 0.016 ppm): 17
Observed efficacy (Leptosphaeria nodorum; 1 ppm): 43
Observed efficacy (Botrytis cinerea; 1 ppm): 36
Observed efficacy (Botrytis cinerea; 4 ppm): 72
Observed efficacy (Alternaria solani; 1 ppm): 66

N#Cc1c(Cl)c(Cl)c(Cl)c(C#N)c1Cl [II-11, chlorothalonil, reference compound]
inhibition of growth at 0.016 ppm (Phytophthora infestans; [1]): 2%
inhibition of growth at 1 ppm (Leptosphaeria nodorum; [10]): 28%
inhibition of growth at 1 ppm (Botrytis cinerea; [14]): 23%
inhibition of growth at 4 ppm (Botrytis cinerea; [13]): 41%
inhibition of growth at […] (Alternaria solani; [15]): 4%
inhibition of growth at […] (Alternaria solani; [11]): 2%

CCCC(Cn1cncn1)(OC)c1ccc(Oc2ccc(Cl)cc2)cc1Cl (centres unmarked) [I-22, 1-[2-[2-chloro-4-(4-chlorophenoxy)phenyl]-2-methoxy-pentyl]-1,2,4-triazole]
inhibition of growth at 63 ppm (Phytophthora infestans; [1]): 41%
inhibition of growth at 0.001 ppm (Septoria tritici; [3]): 10%
inhibition of growth at […] (Leptosphaeria nodorum; Parastagonospora nodorum, 168 h, 0.063 ppm, read-out: Observed efficacy): 25%
inhibition of growth at […] (Botrytis cinerea; [12]): 1%
inhibition of growth at 1 ppm (Botrytis cinerea; [14]): 34%
inhibition of growth at […] (Alternaria solani; [15]): 25%
